Reference: PubChem BioAssay (NCI)
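Assay format: 96-well plates, 48-hour exposure. GI50 = concentration required for 50% inhibition of growth. TGI marks complete inhibition of growth.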

Experiments:
Experiment in all cases: NCI tumour cell line growth inhibition, 48 h; in the data active = GI50 below about 0.43 µM; inactive = the rest
786-0 renal = system: 786-0 renal
A549 NSCLC = system: A549 NSCLC
ACHN renal = system: ACHN renal
BT-549 breast = system: BT-549 breast
CAKI-1 renal = system: CAKI-1 renal
CCRF-CEM leukemia = system: CCRF-CEM leukemia
COLO 205 colon = system: COLO 205 colon
DU-145 prostate = system: DU-145 prostate
EKVX NSCLC = system: EKVX NSCLC
HCC-2998 colon = system: HCC-2998 colon
HCT-116 colon = system: HCT-116 colon
HCT-15 colon = system: HCT-15 colon
HOP-62 NSCLC = system: HOP-62 NSCLC
HOP-92 NSCLC = system: HOP-92 NSCLC
HS 578T breast = system: HS 578T breast
HT29 colon = system: HT29 colon
IGROV1 ovarian = system: IGROV1 ovarian
K-562 leukemia = system: K-562 leukemia
KM12 colon = system: KM12 colon
LOX IMVI melanoma = system: LOX IMVI melanoma
M14 melanoma = system: M14 melanoma
MCF7 breast = system: MCF7 breast
MDA-MB-231 breast = system: MDA-MB-231 breast
MDA-MB-435 = system: MDA-MB-435
MOLT-4 leukemia = system: MOLT-4 leukemia
NCI-H226 lung = system: NCI-H226 lung
NCI-H23 lung = system: NCI-H23 lung
NCI-H460 lung = system: NCI-H460 lung
NCI-H522 lung = system: NCI-H522 lung
NCI/ADR-RES ovarian = system: NCI/ADR-RES ovarian
OVCAR-3 ovarian = system: OVCAR-3 ovarian
OVCAR-4 ovarian = system: OVCAR-4 ovarian
OVCAR-5 ovarian = system: OVCAR-5 ovarian
OVCAR-8 ovarian = system: OVCAR-8 ovarian
PC-3 prostate = system: PC-3 prostate
RPMI-8226 leukemia = system: RPMI-8226 leukemia
RXF 393 renal = system: RXF 393 renal
SF-268 CNS = system: SF-268 CNS
SF-295 CNS = system: SF-295 CNS
SF-539 CNS = system: SF-539 CNS
SK-MEL-2 melanoma = system: SK-MEL-2 melanoma
SK-MEL-28 melanoma = system: SK-MEL-28 melanoma
SK-MEL-5 melanoma = system: SK-MEL-5 melanoma
SK-OV-3 ovarian = system: SK-OV-3 ovarian
SN12C renal = system: SN12C renal
SNB-19 CNS = system: SNB-19 CNS
SNB-75 CNS = system: SNB-75 CNS
SW-620 colon = system: SW-620 colon
T-47D breast = system: T-47D breast
TK-10 renal = system: TK-10 renal
U251 CNS = system: U251 CNS
UACC-257 melanoma = system: UACC-257 melanoma
UACC-62 melanoma = system: UACC-62 melanoma
UO-31 renal = system: UO-31 renal
A498 renal = system: A498 renal
HL-60(TB) leukemia = system: HL-60(TB) leukemia
MALME-3M melanoma = system: MALME-3M melanoma
SR leukemia = system: SR leukemia

CCCCCCCCCCCCC(O)c1ccco1 (stereo not drawn)
70.7 µM: TGI (SNB-19 CNS)
39 µM: TGI (SNB-75 CNS)
inactive: GI50 (786-0 renal) 19.7 µM | GI50 (A549 NSCLC) 25.5 µM | GI50 (ACHN renal) 17.9 µM | GI50 (BT-549 breast) 20.1 µM | GI50 (CAKI-1 renal) 18 µM | GI50 (CCRF-CEM leukemia) 19.4 µM | GI50 (COLO 205 colon) 36.6 µM | GI50 (DU-145 prostate) 19.3 µM | GI50 (EKVX NSCLC) 20.8 µM | GI50 (HCC-2998 colon) 18.4 µM | GI50 (HCT-116 colon) 22.2 µM | GI50 (HCT-15 colon) 19.2 µM | GI50 (HOP-62 NSCLC) 20.6 µM | GI50 (HOP-92 NSCLC) 15.5 µM | GI50 (HS 578T breast) 16.2 µM | GI50 (HT29 colon) 35.8 µM | GI50 (IGROV1 ovarian) 21.1 µM | GI50 (K-562 leukemia) 29.1 µM | GI50 (KM12 colon) 21.7 µM | GI50 (LOX IMVI melanoma) 17.9 µM | GI50 (M14 melanoma) 21 µM | GI50 (MCF7 breast) 29.4 µM | GI50 (MDA-MB-231 breast) 17.4 µM | GI50 (MDA-MB-435) 19.4 µM | GI50 (MOLT-4 leukemia) 25.4 µM | GI50 (NCI-H226 lung) 20.8 µM | GI50 (NCI-H23 lung) 16.2 µM | GI50 (NCI-H460 lung) 29.5 µM | GI50 (NCI-H522 lung) 20 µM | GI50 (NCI/ADR-RES ovarian) 16.4 µM | GI50 (OVCAR-3 ovarian) 17.9 µM | GI50 (OVCAR-4 ovarian) 29.7 µM | GI50 (OVCAR-5 ovarian) 16.1 µM | GI50 (OVCAR-8 ovarian) 25.6 µM | GI50 (PC-3 prostate) 16.9 µM | GI50 (RPMI-8226 leukemia) 21 µM | GI50 (RXF 393 renal) 24 µM | GI50 (SF-268 CNS) 19.1 µM | GI50 (SF-295 CNS) 19.7 µM | GI50 (SF-539 CNS) 20.9 µM | GI50 (SK-MEL-2 melanoma) 22 µM | GI50 (SK-MEL-28 melanoma) 24.3 µM | GI50 (SK-MEL-5 melanoma) 14.8 µM | GI50 (SK-OV-3 ovarian) 22.5 µM | GI50 (SN12C renal) 17.1 µM | GI50 (SNB-19 CNS) 25.9 µM | GI50 (SNB-75 CNS) 21.1 µM | GI50 (SW-620 colon) 16.7 µM | GI50 (T-47D breast) 35.5 µM | GI50 (TK-10 renal) 22.8 µM | GI50 (U251 CNS) 16.2 µM | GI50 (UACC-257 melanoma) 22.6 µM | GI50 (UACC-62 melanoma) 17.7 µM | GI50 (UO-31 renal) 19 µM
34.4 µM: TGI (OVCAR-3 ovarian)
35.7 µM: TGI (HS 578T breast)
39.7 µM: TGI (UO-31 renal)
33.4 µM: TGI (CAKI-1 renal)
41 µM: TGI (NCI-H522 lung)
52 µM: TGI (MOLT-4 leukemia)
31.7 µM: TGI (ACHN renal) | TGI (SN12C renal)
40.9 µM: TGI (TK-10 renal)
39.4 µM: TGI (UACC-257 melanoma)
48.1 µM: TGI (A549 NSCLC) | TGI (KM12 colon)
40.8 µM: TGI (BT-549 breast)
32.4 µM: TGI (UACC-62 melanoma)
78.3 µM: TGI (OVCAR-4 ovarian)
29.7 µM: TGI (U251 CNS)
44.7 µM: TGI (RXF 393 renal) | TGI (SK-OV-3 ovarian)
30.3 µM: TGI (OVCAR-5 ovarian)
32.3 µM: TGI (HCC-2998 colon)
32.1 µM: TGI (HOP-92 NSCLC)
37.9 µM: TGI (M14 melanoma) | TGI (NCI-H226 lung)
38.8 µM: TGI (EKVX NSCLC)
55.3 µM: TGI (SK-MEL-28 melanoma)
32.2 µM: TGI (LOX IMVI melanoma)
52.1 µM: TGI (HCT-116 colon)
38.7 µM: TGI (SF-539 CNS)
36 µM: TGI (HCT-15 colon)
52.9 µM: TGI (OVCAR-8 ovarian)
32 µM: TGI (SW-620 colon)
42.7 µM: TGI (IGROV1 ovarian)
49.2 µM: TGI (RPMI-8226 leukemia)
30.8 µM: TGI (NCI/ADR-RES ovarian)
35.6 µM: TGI (MDA-MB-435)
28.2 µM: TGI (SK-MEL-5 melanoma)
46 µM: TGI (SF-268 CNS) | TGI (SK-MEL-2 melanoma)
30.4 µM: TGI (NCI-H23 lung)
39.3 µM: TGI (SF-295 CNS)
36.6 µM: TGI (786-0 renal)
> 100 µM: TGI (COLO 205 colon) | TGI (HT29 colon) | TGI (MCF7 breast) | TGI (NCI-H460 lung) | TGI (T-47D breast)
35.1 µM: TGI (DU-145 prostate)
30.7 µM: TGI (PC-3 prostate)
36.8 µM: TGI (HOP-62 NSCLC)
48 µM: TGI (K-562 leukemia)
38.5 µM: TGI (CCRF-CEM leukemia)
32.7 µM: TGI (MDA-MB-231 breast)

COc1ccccc1C1C(C#N)=C(N)Oc2n[nH]c(C)c21 (stereo not drawn)
inactive: GI50 (A498 renal) > 100 µM | GI50 (A549 NSCLC) > 100 µM | GI50 (ACHN renal) > 100 µM | GI50 (BT-549 breast) > 100 µM | GI50 (CAKI-1 renal) > 100 µM | GI50 (CCRF-CEM leukemia) 22.8 µM | GI50 (COLO 205 colon) > 100 µM | GI50 (DU-145 prostate) > 100 µM | GI50 (EKVX NSCLC) > 100 µM | GI50 (HCC-2998 colon) > 100 µM | GI50 (HCT-116 colon) 90.7 µM | GI50 (HCT-15 colon) > 100 µM | GI50 (HL-60(TB) leukemia) 62 µM | GI50 (HOP-62 NSCLC) > 100 µM | GI50 (HOP-92 NSCLC) 41.2 µM | GI50 (HS 578T breast) 27.8 µM | GI50 (HT29 colon) > 100 µM | GI50 (IGROV1 ovarian) 37.7 µM | GI50 (K-562 leukemia) > 100 µM | GI50 (KM12 colon) > 100 µM | GI50 (LOX IMVI melanoma) > 100 µM | GI50 (M14 melanoma) > 100 µM | GI50 (MALME-3M melanoma) > 100 µM | GI50 (MCF7 breast) > 100 µM | GI50 (MDA-MB-231 breast) 15.1 µM | GI50 (MDA-MB-435) 75.1 µM | GI50 (MOLT-4 leukemia) > 100 µM | GI50 (NCI-H226 lung) 74.5 µM | GI50 (NCI-H23 lung) > 100 µM | GI50 (NCI-H460 lung) > 100 µM | GI50 (NCI-H522 lung) 56.3 µM | GI50 (NCI/ADR-RES ovarian) > 100 µM | GI50 (OVCAR-3 ovarian) > 100 µM | GI50 (OVCAR-4 ovarian) > 100 µM | GI50 (OVCAR-5 ovarian) > 100 µM | GI50 (OVCAR-8 ovarian) > 100 µM | GI50 (RPMI-8226 leukemia) 10.5 µM | GI50 (RXF 393 renal) > 100 µM | GI50 (SF-268 CNS) > 100 µM | GI50 (SF-295 CNS) > 100 µM | GI50 (SF-539 CNS) > 100 µM | GI50 (SK-MEL-2 melanoma) > 100 µM | GI50 (SK-MEL-28 melanoma) > 100 µM | GI50 (SK-MEL-5 melanoma) 59 µM | GI50 (SK-OV-3 ovarian) > 100 µM | GI50 (SN12C renal) 14.8 µM | GI50 (SNB-19 CNS) > 100 µM | GI50 (SNB-75 CNS) > 100 µM | GI50 (SR leukemia) 37.8 µM | GI50 (SW-620 colon) > 100 µM | GI50 (T-47D breast) > 100 µM | GI50 (TK-10 renal) > 100 µM | GI50 (U251 CNS) 92.9 µM | GI50 (UACC-257 melanoma) > 100 µM | GI50 (UO-31 renal) > 100 µM
29.6 µM: TGI (RPMI-8226 leukemia)
> 100 µM: TGI (A498 renal) | TGI (A549 NSCLC) | TGI (ACHN renal) | TGI (BT-549 breast) | TGI (CAKI-1 renal) | TGI (CCRF-CEM leukemia) | TGI (COLO 205 colon) | TGI (DU-145 prostate) | TGI (EKVX NSCLC) | TGI (HCC-2998 colon) | TGI (HCT-116 colon) | TGI (HCT-15 colon) | TGI (HL-60(TB) leukemia) | TGI (HOP-62 NSCLC) | TGI (HOP-92 NSCLC) | TGI (HS 578T breast) | TGI (HT29 colon) | TGI (K-562 leukemia) | TGI (KM12 colon) | TGI (LOX IMVI melanoma) | TGI (M14 melanoma) | TGI (MALME-3M melanoma) | TGI (MCF7 breast) | TGI (MDA-MB-231 breast) | TGI (MDA-MB-435) | TGI (MOLT-4 leukemia) | TGI (NCI-H226 lung) | TGI (NCI-H23 lung) | TGI (NCI-H460 lung) | TGI (NCI-H522 lung) | TGI (NCI/ADR-RES ovarian) | TGI (OVCAR-3 ovarian) | TGI (OVCAR-4 ovarian) | TGI (OVCAR-5 ovarian) | TGI (OVCAR-8 ovarian) | TGI (RXF 393 renal) | TGI (SF-268 CNS) | TGI (SF-295 CNS) | TGI (SF-539 CNS) | TGI (SK-MEL-2 melanoma) | TGI (SK-MEL-28 melanoma) | TGI (SK-MEL-5 melanoma) | TGI (SK-OV-3 ovarian) | TGI (SN12C renal) | TGI (SNB-19 CNS) | TGI (SNB-75 CNS) | TGI (SR leukemia) | TGI (SW-620 colon) | TGI (T-47D breast) | TGI (TK-10 renal) | TGI (U251 CNS) | TGI (UACC-257 melanoma) | TGI (UO-31 renal)
95.7 µM: TGI (IGROV1 ovarian)
